Assay results: ChEMBL document CHEMBL1126477 (Bioorg Med Chem Lett, 1993)

These molecules were tested against T1, Angiotensin II receptor (Rattus norvegicus, UniProt P29089+P25095+P35351) (assay: Angiotensin II receptor antagonist activity was determined by 50% inhibition of specific binding of [3H]angiotensin II (2 nM) to rat adrenal cortical microsomes).
T1 sequence (P29089 whole entry): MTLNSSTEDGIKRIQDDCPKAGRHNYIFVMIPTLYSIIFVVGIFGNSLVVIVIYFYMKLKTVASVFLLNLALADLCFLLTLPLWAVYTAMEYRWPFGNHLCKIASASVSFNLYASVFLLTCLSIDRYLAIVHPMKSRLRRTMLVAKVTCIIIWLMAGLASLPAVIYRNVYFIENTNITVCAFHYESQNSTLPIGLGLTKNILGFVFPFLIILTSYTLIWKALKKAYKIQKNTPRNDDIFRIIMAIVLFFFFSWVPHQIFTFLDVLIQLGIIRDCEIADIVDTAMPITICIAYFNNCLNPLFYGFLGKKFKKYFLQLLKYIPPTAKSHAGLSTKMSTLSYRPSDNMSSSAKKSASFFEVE
T1 sequence (P25095 whole entry): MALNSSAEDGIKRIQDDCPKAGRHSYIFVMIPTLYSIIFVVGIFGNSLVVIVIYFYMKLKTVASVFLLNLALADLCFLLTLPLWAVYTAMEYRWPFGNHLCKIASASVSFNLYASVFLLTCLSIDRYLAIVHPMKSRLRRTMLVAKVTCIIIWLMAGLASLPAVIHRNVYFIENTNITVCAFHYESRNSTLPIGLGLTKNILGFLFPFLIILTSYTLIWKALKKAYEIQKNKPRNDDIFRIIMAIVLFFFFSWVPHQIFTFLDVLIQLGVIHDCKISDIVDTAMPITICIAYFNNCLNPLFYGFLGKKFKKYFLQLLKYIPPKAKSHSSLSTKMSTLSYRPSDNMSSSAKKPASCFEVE
T1 sequence (P35351 whole entry): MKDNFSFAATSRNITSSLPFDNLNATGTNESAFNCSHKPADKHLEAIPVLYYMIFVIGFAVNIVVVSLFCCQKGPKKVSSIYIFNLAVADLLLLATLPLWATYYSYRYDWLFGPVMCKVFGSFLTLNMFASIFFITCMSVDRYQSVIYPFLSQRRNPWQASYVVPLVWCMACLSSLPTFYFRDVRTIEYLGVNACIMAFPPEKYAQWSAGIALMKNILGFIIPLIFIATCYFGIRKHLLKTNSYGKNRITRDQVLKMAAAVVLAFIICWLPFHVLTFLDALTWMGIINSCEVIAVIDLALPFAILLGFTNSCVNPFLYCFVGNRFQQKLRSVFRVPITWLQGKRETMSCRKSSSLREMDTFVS

Row | SMILES | IC50 [nM]
1 | CCCc1nc(C(F)(F)C(F)(F)C(F)(F)F)c(CO)n1Cc1ccc(-c2ccccc2-c2nn[nH]n2)cc1 | 13
2 | CCCc1nc(C(F)(F)C(F)(F)F)c(CO)n1Cc1ccc(-c2ccccc2C(=O)O)cc1 | 48
3 | CCCc1nc(C(F)(F)C(F)(F)F)c(CO)n1Cc1ccc(-c2ccccc2-c2nn[nH]n2)cc1 | 1.2
4 | CCCc1nc(C(F)(F)C(F)(F)C(F)(F)C(F)(F)C(F)(F)C(F)(F)F)c(CO)n1Cc1ccc(-c2ccccc2C(=O)O)cc1 | 2500
5 | CCCc1nc(C(F)(F)F)c(CO)n1Cc1ccc(-c2ccccc2-c2nn[nH]n2)cc1 | 6.4
6 | CCCc1nc(C(F)(F)F)c(CO)n1Cc1ccc(-c2ccccc2C(=O)O)cc1 | 130
7 | CCCc1nc(C(F)(F)C(F)(F)C(F)(F)F)c(CO)n1Cc1ccc(-c2ccccc2C(=O)O)cc1 | 74
8 | CCCc1nc(C(F)(F)C(F)(F)C(F)(F)C(F)(F)F)c(CO)n1Cc1ccc(-c2ccccc2C(=O)O)cc1 | 290

What follows are molecules tested on Rattus norvegicus (assay: The compound was tested for antihypertensive activity in renal hypertensive rat after intravenous administration).
Format: functional

Row | SMILES | ED30 [mg/kg]
9 | CCCc1nc(C(F)(F)C(F)(F)C(F)(F)F)c(C(=O)O)n1Cc1ccc(-c2ccccc2-c2nn[nH]n2)cc1 | 0.62
10 | CCCc1nc(C(F)(F)F)c(C(=O)O)n1Cc1ccc(-c2ccccc2-c2nn[nH]n2)cc1 | 0.01
11 | CCCc1nc(C(F)(F)C(F)(F)F)c(C(=O)O)n1Cc1ccc(-c2ccccc2-c2nn[nH]n2)cc1 | 0.042
12 | CCCCc1nc(Cl)c(C(=O)O)n1Cc1ccc(-c2ccccc2-c2nn[nH]n2)cc1 [CARBOXYLIC ACID METABOLITE] | 0.038

The molecules below were run on Rattus norvegicus (assay: The compound was tested for antihypertensive activity in renal hypertensive rat after oral administration).
Format: functional

Row | SMILES | ED30 [mg/kg]
13 | CCCc1nc(C(F)(F)F)c(C(=O)O)n1Cc1ccc(-c2ccccc2-c2nn[nH]n2)cc1 | 0.79
14 | CCCc1nc(C(F)(F)C(F)(F)F)c(C(=O)O)n1Cc1ccc(-c2ccccc2-c2nn[nH]n2)cc1 | 0.21
15 | CCCCc1nc(Cl)c(C(=O)O)n1Cc1ccc(-c2ccccc2-c2nn[nH]n2)cc1 [CARBOXYLIC ACID METABOLITE] | 0.66
